Experimental data reported in patent publication US20120171123A1, “USES AND COMPOSITIONS FOR TREATMENT OF RHEUMATOID ARTHRITIS” (priority 2006, published 2012).
Marks after values point to notes of the source that are not given here.

Test system: MTX-naïve adult patients with active, early RA (<3 years)
Assay: Study J: radiographic progression (TSS, joint erosion, joint space narrowing)
Type: in vivo, human
Text: The co-primary endpoints, comparing MTX alone with the combination at 1 year, were the ACR50 response (using non-responder imputation), and inhibition of radiographic progression, as measured by change in total Sharp score (TSS). In this study, the term “Major Clinical Response” (MCR) meant a continuous ACR70 response for 6 or more consecutive months.
At 1 and 2 years, the American College of Rheumatology (ACR) responses (ACR20, ACR50, and ACR70), the Disease Activity Score 28 (DAS28), and the change (Δ) in Total Sharp Score (TSS) were determined for all patients. Results were analyzed for the intention-to-treat (ITT) population using imputation for missing data. Clinical remission was defined as DAS28<2.6. The mean ΔTSS values at 1 year and 2 years (N=791) were determined for patients in each ACR response category (ACR20/50/70) and for patients with DAS28<2.6
Radiographic progression was measured by Total Sharp Score (TSS) at baseline, and 1 and 2 years in the intention to treat population (ITT) using imputation for missing data. In this analysis, patients were divided into 1 of 2 categories by disease duration at baseline: <6 months (Group 1) or 6 months to 3 years (Group 2). Mean changes in TSS were reported for both groups by each of the 3 treatment arms from baseline to Year 1 and from Year 1 to Year 2.
Radiographic progression was assessed by mean change from baseline in Total Sharp Score (TSS) and stratified into those with (ΔTSS>0.5) and without (Δ≦TSS 0.5). Patients were categorized as either having radiographic progression at 1 year (ΔTSS>0.5) or not (Δ≦TSS 0.5). A logistic regression model was used to identify predictors of radiographic disease progression by testing several baseline characteristics, including age, disease duration, RF status, TJC, SJC, joint erosions, and CRP. For analyses of CRP, patients were categorized as normal (CRP≦0.8 mg/dL) or abnormal (CRP>0.8 mg/dL).
Mean change from baseline in Total Sharp Score (TSS) was measured at 6 months, 1 year, and 2 years in the intention-to-treat (ITT) population using imputation for missing data. Patients were classified as having radiographic progression (mean change in TSS>0.5) or without radiographic progression (ΔTSS≦0.5). Patients with inadequate data were excluded from this analysis.
Patients in the Ada+MTX and the MTX arms were classified according to level of clinical response (non-responder (<ACR20), ACR20, ACR50, or ACR70) and radiographic progression (Yes or No (ΔTSS≦0.5)). The ΔTSS was analyzed overall, and for ACR subgroups. This included determination of mean ΔTSS and probability plots.
Study J was a 2-year, double-blind, active comparator-controlled, Phase III study. […] For each patient, radiographs of hands and feet were taken at baseline, 6 months, 1 year and 2 years and evaluated for joint erosions (JE) and joint space narrowing (JSN) by 2 blinded radiologists. Changes from baseline in the modified total Sharp score (TSS, 0-398) were calculated for patients in each treatment arm. Cumulative probability plots were generated by estimating the probability of exceeding a given change in TSS. For each treatment, we calculated the percentages of patients whose ΔTSS exceeded specified thresholds, and the probability of having a given ΔTSS (using cumulative probability plots). For each of 4 cumulative probability ranges, 0-10%, 10-50%, 50-90% and 90-100% (higher numbered ranges=greater ΔTSS), mean ΔTSS values were calculated. In previous reports, Study J radiographic analyses employed linear imputation. In the present analysis, only observed data were employed, with no imputation.

[1] = disease duration 6 months-3 years (n=333)

adalimumab: human anti-TNF mAb (HUMIRA, Abbott Laboratories), described in U.S. Pat. No. 6,090,382 as D2E7
Mean change in TSS (1 year, ACR20 responders): 2.3
mean change in JE score (1 year, ACR20 responders): 1.0
mean change in JSN (1 year, ACR20 responders): 1.3
Mean change in TSS (1 year, ACR50 responders): 1.7
mean change in JE score (1 year, ACR50 responders): 0.8
mean change in JSN (1 year, ACR50 responders): 0.9
Mean change in TSS (1 year, ACR70 responders): 1.1
mean change in JE score (1 year, ACR70 responders): 0.5
mean change in JSN (1 year, ACR70 responders): 0.6
patients with no radiographic progression (1 year, abnormal baseline CRP normalized at 1 year): 53%
patients with no radiographic progression (1 year, elevated CRP at both baseline and 1 year): 32%
Mean change in TSS (1 year, patients with DAS28<2.6): −0.1
% of patients with >4 change TSS (2 years): 30.7%
% of patients with >10 change TSS (2 years): 17.5%
% of patients with >20 change TSS (2 years): 5.4%
patients with no radiographic progression (change in TSS ≦0.5) (2 years): 45%
mean change in JE score (2 years, ACR20 responders): 2.3
mean change in JSN (2 years, ACR20 responders): 2.2
mean change in TSS from baseline (2 years, ACR20 responders): 4.5
mean change in JE score (2 years, ACR50 responders): 1.5
mean change in JSN (2 years, ACR50 responders): 1.9
mean change in TSS from baseline (2 years, ACR50 responders): 3.4
mean change in JE score (2 years, ACR70 responders): 1.6
mean change in JSN (2 years, ACR70 responders): 1.9
mean change in TSS from baseline (2 years, ACR70 responders): 3.5
Mean change in TSS (2 years, patients with DAS28<2.6): 1.3
Mean change in TSS (2 years, all points (0-100), observed data): 4.7
Mean change in TSS (2 years, cumulative probability range 0-10): −2.8
Mean change in TSS (2 years, cumulative probability range 50-90): 4.7^†
Mean change in TSS (2 years, cumulative probability range 90-100): 28.9
% of patients with >4 change TSS (6 months): 0.5%
% of patients with >10 change TSS (6 months): 6.5%
% of patients with >20 change TSS (6 months): 10.6%
patients with no radiographic progression (6 months): 63%
Mean change in TSS (6 months, all points (0-100), observed data): 2.1*
Mean change in TSS (6 months, cumulative probability range 0-10): −3.4
Mean change in TSS (6 months, cumulative probability range 90-100): 13.6
Patients with No Radiographic Progression at 1 Year (CRP (BL and Year 1) Abnormal to Normal): 53%*
Patients with No Radiographic Progression at 1 Year (CRP (BL and Year 1) Always Normal): 91%
Patients with No Radiographic Progression at 1 Year (CRP (BL and Year 1) Never Normal): 32%
No Progression at Month 6, % (Study J): 63%
No Progression at Month 6, patients/total (Study J): 172/271
No Progression at Month 6 and Year 2, % (Study J): 63%
No Progression at Month 6 and Year 2, patients/Month-6 non-progressors (Study J): 109/172
Yr-2 Non-P, % (among Mo-6 Non-Progressors): 63%
Yr-2 Non-P, number of patients (among Mo-6 Non-Progressors): 109
Yr-2 Prog, % (among Mo-6 Non-Progressors): 37%
Yr-2 Prog, number of patients (among Mo-6 Non-Progressors): 63
Yr-2 Non-P, % (among Mo-6 Progressors): 13 (13%)
Yr-2 Non-P, number of patients (among Mo-6 Progressors): 13 (13%)
Yr-2 Prog, % (among Mo-6 Progressors): 87%
Yr-2 Prog, number of patients (among Mo-6 Progressors): 86
mean change TSS during year 1 [1]: 2.4 sharp score units
mean change TSS during year 2 [1]: 3.2 sharp score units
mean change TSS during year 1 (disease duration <6 months): 3.4 sharp score units
mean change TSS during year 2 (disease duration <6 months): 2.1 sharp score units
Mo-6 Non-Progressors, % of arm (no progression = ΔTSS≦0.5): 63%
Mo-6 Non-Progressors, number of patients (no progression = ΔTSS≦0.5): 172
patients with no progression at year 2 (no progression at month 6): 63%
Mo-6 Progressors, % of arm (progression = ΔTSS>0.5): 37%
Mo-6 Progressors, number of patients (progression = ΔTSS>0.5): 99
patients with no progression at year 2 (progression at month 6): 13%
mean change from baseline in TSS (week 26, ITT with imputation): 2.1**
